Converted amounts (≈) assume the structure as drawn.
Experiments:
[1] = test system: RPMI 8226 (multiple myeloma) cells; assay: MTT cell growth inhibition, multiple myeloma cells; assay type: cell-based, human; conditions: Homo sapiens, RPMI 8226, 72 h, MTT
Protocol: Myeloma cell lines: RPMI8226 (multiple myeloma), purchased from Fuxiang Bio-tech Co. Ltd., Shanghai, China.
(§1) 6000 well-growing cells were obtained and inoculated into wells of a 96-well cell culture plate. The culture medium was a RPMI-1640 cell culture medium containing 10% fetal bovine serum. After adding the 7-substituted fangchinoline derivatives of different concentrations the next day and mixing uniformly, the plate was placed in a carbon dioxide cell incubator (5% CO2) at 37° C. and incubated for 72 hours. Then the viable cell concentration was determined by the MTT method.

[2] = test system: U87-MG (malignant glioma) cells; assay: MTT cell growth inhibition, solid tumor cells; assay type: cell-based; conditions: Homo sapiens, U-87 MG, U87-MG, 72 h, MTT
Source text: (§2) Hep-2 (laryngeal carcinoma), A549 (human lung cancer), CaES-17 (esophageal cancer cell), PC-3 (prostate cancer), CNE (nasopharyngeal carcinoma cell) and SK-OV-3 (ovarian cancer cell), all of which were purchased from China Center For Type Culture Collection; RKO (human colon adenocarcinoma cell), MGC-803 (human gastric cancer cell), MG-63 (osteosarcoma), and U87-MG (malignant glioma cell), all of which were purchased from Fuxiang Bio-tech Co. Ltd., Shanghai, China; PANC-1 (pancreatic cancer), Becap37 (human breast cancer cell), Hela (human cervical cancer cell) and Hep G2 (human liver cancer cell), all of which were donated by Cancer Research Institute of Zhejiang University, China.
as §1, with “well-growing human solid tumor” for “well-growing”, “DMEM High Glucose” for “a RPMI-1640”, “serum. The plate was placed in a carbon dioxide cell incubator (5% CO2) at 37° C. and incubated for 24 hours.” for “serum.”, “added with” for “adding the”, “concentration” for “concentrations the next day”

[3] = test system: Hep G2 (human liver cancer) cells; assay: MTT cell growth inhibition, solid tumor cells; assay type: cell-based; conditions: Homo sapiens, HepG2, Hep G2, 72 h, MTT
Source text: as §2
as §1, with “well-growing human solid tumor” for “well-growing”, “DMEM High Glucose” for “a RPMI-1640”, “serum. The plate was placed in a carbon dioxide cell incubator (5% CO2) at 37° C. and incubated for 24 hours.” for “serum.”, “added with” for “adding the”, “concentration” for “concentrations the next day”

[4] = test system: RKO (human colon adenocarcinoma) cells; assay: MTT cell growth inhibition, solid tumor cells; assay type: cell-based; conditions: Homo sapiens, RKO, 72 h, MTT
Source text: as §2
as §1, with “well-growing human solid tumor” for “well-growing”, “DMEM High Glucose” for “a RPMI-1640”, “serum. The plate was placed in a carbon dioxide cell incubator (5% CO2) at 37° C. and incubated for 24 hours.” for “serum.”, “added with” for “adding the”, “concentration” for “concentrations the next day”

[5] = test system: A549 (human lung cancer) cells; assay: MTT cell growth inhibition, solid tumor cells; assay type: cell-based; conditions: Homo sapiens, A549, 72 h, MTT
Source text: as §2
as §1, with “well-growing human solid tumor” for “well-growing”, “DMEM High Glucose” for “a RPMI-1640”, “serum. The plate was placed in a carbon dioxide cell incubator (5% CO2) at 37° C. and incubated for 24 hours.” for “serum.”, “added with” for “adding the”, “concentration” for “concentrations the next day”

[6] = test system: MG-63 (osteosarcoma) cells; assay: MTT cell growth inhibition, solid tumor cells; assay type: cell-based; conditions: Homo sapiens, MG-63, 72 h, MTT
Source text: as §2
as §1, with “well-growing human solid tumor” for “well-growing”, “DMEM High Glucose” for “a RPMI-1640”, “serum. The plate was placed in a carbon dioxide cell incubator (5% CO2) at 37° C. and incubated for 24 hours.” for “serum.”, “added with” for “adding the”, “concentration” for “concentrations the next day”

[7] = test system: MGC-803 (human gastric cancer) cells; assay: MTT cell growth inhibition, solid tumor cells; assay type: cell-based; conditions: MGC-803, 72 h, MTT
Source text: as §2
as §1, with “well-growing human solid tumor” for “well-growing”, “DMEM High Glucose” for “a RPMI-1640”, “serum. The plate was placed in a carbon dioxide cell incubator (5% CO2) at 37° C. and incubated for 24 hours.” for “serum.”, “added with” for “adding the”, “concentration” for “concentrations the next day”

[8] = test system: Hep-2 (laryngeal carcinoma) cells; assay: MTT cell growth inhibition, solid tumor cells; assay type: cell-based; conditions: Homo sapiens, Hep-2, 72 h, MTT
Source text: as §2
as §1, with “well-growing human solid tumor” for “well-growing”, “DMEM High Glucose” for “a RPMI-1640”, “serum. The plate was placed in a carbon dioxide cell incubator (5% CO2) at 37° C. and incubated for 24 hours.” for “serum.”, “added with” for “adding the”, “concentration” for “concentrations the next day”

[9] = test system: Becap-37 (human breast cancer) cells; assay: MTT cell growth inhibition, solid tumor cells; assay type: cell-based; conditions: Homo sapiens, Becap-37, 72 h, MTT
Source text: as §2
as §1, with “well-growing human solid tumor” for “well-growing”, “DMEM High Glucose” for “a RPMI-1640”, “serum. The plate was placed in a carbon dioxide cell incubator (5% CO2) at 37° C. and incubated for 24 hours.” for “serum.”, “added with” for “adding the”, “concentration” for “concentrations the next day”

[10] = test system: Hela (human cervical cancer) cells; assay: MTT cell growth inhibition, solid tumor cells; assay type: cell-based; conditions: Homo sapiens, Hela, 72 h, MTT
Source text: as §2
as §1, with “well-growing human solid tumor” for “well-growing”, “DMEM High Glucose” for “a RPMI-1640”, “serum. The plate was placed in a carbon dioxide cell incubator (5% CO2) at 37° C. and incubated for 24 hours.” for “serum.”, “added with” for “adding the”, “concentration” for “concentrations the next day”

[11] = test system: Kasumi-1 (acute myeloid leukemia M2 type) cells; assay: MTT cell growth inhibition, leukemia cells; assay type: cell-based, human; conditions: Homo sapiens, Kasumi-1, 72 h, MTT
Source text: (§3) Leukemia cell lines: leukemia cell lines: K562adr (drug-resistant, chronic myeloid leukemia, CML), NB4 (acute promyelocytic leukemia, AML), Kasumi-1 (acute myeloid leukemia M2 type, AML-M2), Jurkat (acute lymphoblastic leukemia, ALL), all of which were donated by Cancer Research Institute of Zhejiang University, China; and H9 (acute lymphoblastic leukemia, ALL), which was purchased from China Center for Type Culture Collection.
(§4) Reagents: The standard sample of fangchinoline (FAN) was purchased from Ci Yuan Biotechnology Co., Ltd., Shaanxi, China; and the 7-substituted fangchinoline derivatives according to the present invention.
as §1, with “well-growing leukemia” for “well-growing”, “incubating” for “incubated”

[12] = test system: Jurkat (acute lymphoblastic leukemia) cells; assay: MTT cell growth inhibition, leukemia cells; assay type: cell-based, human; conditions: Homo sapiens, Jurkat, 72 h, MTT
Source text: as §3, §4
as §1, with “well-growing leukemia” for “well-growing”, “incubating” for “incubated”

[13] = test system: CNE (nasopharyngeal carcinoma) cells; assay: MTT cell growth inhibition, solid tumor cells; assay type: cell-based, human
Source text: as §2
as §1, with “well-growing human solid tumor” for “well-growing”, “DMEM High Glucose” for “a RPMI-1640”, “serum. The plate was placed in a carbon dioxide cell incubator (5% CO2) at 37° C. and incubated for 24 hours.” for “serum.”, “added with” for “adding the”, “concentration” for “concentrations the next day”

[14] = test system: PC-3 (prostate cancer) cells; assay: MTT cell growth inhibition, solid tumor cells; assay type: cell-based, human; conditions: Homo sapiens, PC-3, 72 h, MTT
Source text: as §2
as §1, with “well-growing human solid tumor” for “well-growing”, “DMEM High Glucose” for “a RPMI-1640”, “serum. The plate was placed in a carbon dioxide cell incubator (5% CO2) at 37° C. and incubated for 24 hours.” for “serum.”, “added with” for “adding the”, “concentration” for “concentrations the next day”

[15] = test system: SK-OV-3 (ovarian cancer) cells; assay: MTT cell growth inhibition, solid tumor cells; assay type: cell-based, human; conditions: Homo sapiens, SK-OV-3, 72 h, MTT
Source text: as §2
as §1, with “well-growing human solid tumor” for “well-growing”, “DMEM High Glucose” for “a RPMI-1640”, “serum. The plate was placed in a carbon dioxide cell incubator (5% CO2) at 37° C. and incubated for 24 hours.” for “serum.”, “added with” for “adding the”, “concentration” for “concentrations the next day”

[16] = test system: CaEs-17 (esophageal cancer) cells; assay: MTT cell growth inhibition, solid tumor cells; assay type: cell-based, human; conditions: Homo sapiens, CaEs17, CaEs-17, 72 h, MTT
Source text: as §2
as §1, with “well-growing human solid tumor” for “well-growing”, “DMEM High Glucose” for “a RPMI-1640”, “serum. The plate was placed in a carbon dioxide cell incubator (5% CO2) at 37° C. and incubated for 24 hours.” for “serum.”, “added with” for “adding the”, “concentration” for “concentrations the next day”

[17] = test system: PANC-1 (pancreatic cancer) cells; assay: MTT cell growth inhibition, solid tumor cells; assay type: cell-based, human; conditions: Homo sapiens, PANC-1, 72 h, MTT
Source text: as §2
as §1, with “well-growing human solid tumor” for “well-growing”, “DMEM High Glucose” for “a RPMI-1640”, “serum. The plate was placed in a carbon dioxide cell incubator (5% CO2) at 37° C. and incubated for 24 hours.” for “serum.”, “added with” for “adding the”, “concentration” for “concentrations the next day”

tumor = assay: Antitumor activity compared with fangchinoline, overall statement; assay type: cell-based; conditions: tumor type not specified

IC50 ([1]; read-out: IC50): < 0.125 µg/mL
IC90 ([1]; read-out: IC90): 0.25 µg/mL (≈ 0.322 µM)
IC50 ([2]; read-out: IC50): 1.05 µg/mL (≈ 1.35 µM)
IC90 ([2]; read-out: IC90): 2.75 µg/mL (≈ 3.54 µM)
IC50 ([3]; read-out: IC50): 1.16 µg/mL (≈ 1.49 µM)
IC90 ([3]; read-out: IC90): 3.25 µg/mL (≈ 4.19 µM)
IC50 ([4]; read-out: IC50): 0.61 µg/mL (≈ 0.786 µM)
IC90 ([4]; read-out: IC90): 2.33 µg/mL (≈ 3 µM)
IC50 ([5]; read-out: IC50): 3.78 µg/mL (≈ 4.87 µM)
IC90 ([5]; read-out: IC90): 10.2 µg/mL (≈ 13.1 µM)
IC50 ([6]; read-out: IC50): 1.6 µg/mL (≈ 2.06 µM)
IC90 ([6]; read-out: IC90): 2.4 µg/mL (≈ 3.09 µM)
IC50 ([7]; read-out: IC50): 0.84 µg/mL (≈ 1.08 µM)
IC90 ([7]; read-out: IC90): 4.44 µg/mL (≈ 5.72 µM)
IC50 ([8]; read-out: IC50): 1.92 µg/mL (≈ 2.47 µM)
IC90 ([8]; read-out: IC90): 8.95 µg/mL (≈ 11.5 µM)
IC50 ([9]; read-out: IC50): 1.15 µg/mL (≈ 1.48 µM)
IC90 ([9]; read-out: IC90): 3.96 µg/mL (≈ 5.1 µM)
IC50 ([10]; read-out: IC50): 0.88 µg/mL (≈ 1.13 µM)
IC90 ([10]; read-out: IC90): 2.78 µg/mL (≈ 3.58 µM)
IC50 ([11]; read-out: IC50): 0.95 µg/mL (≈ 1.22 µM)
IC90 ([11]; read-out: IC90): 2.55 µg/mL (≈ 3.29 µM)
IC50 ([12]; read-out: IC50): 0.97 µg/mL (≈ 1.25 µM)
IC90 ([12]; read-out: IC90): 3.79 µg/mL (≈ 4.88 µM)
IC50 ([13]; Homo sapiens, CNE, 72 h, MTT, read-out: IC50): 0.87 µg/mL (≈ 1.12 µM)
IC90 ([13]; Homo sapiens, CNE, 72 h, MTT, read-out: IC90): 3.87 µg/mL (≈ 4.99 µM)
IC50 ([14]; read-out: IC50): 2.72 µg/mL (≈ 3.51 µM)
IC90 ([14]; read-out: IC90): 6.07 µg/mL (≈ 7.82 µM)
IC50 ([15]; read-out: IC50): 2.36 µg/mL (≈ 3.04 µM)
IC90 ([15]; read-out: IC90): 11 µg/mL (≈ 14.2 µM)
IC50 ([16]; read-out: IC50): 0.88 µg/mL (≈ 1.13 µM)
IC90 ([16]; read-out: IC90): 9.43 µg/mL (≈ 12.2 µM)
IC50 ([17]; read-out: IC50): 2.96 µg/mL (≈ 3.81 µM)
IC90 ([17]; read-out: IC90): 7.01 µg/mL (≈ 9.03 µM)
Structure (SMILES): COc1ccc2cc1Oc1ccc(cc1)C[C@H]1c3cc(c(OC)cc3CCN1C)Oc1c(OCC(O)CN3CCN(C#N)CC3)c(OC)cc3c1[C@H](C2)N(C)CC3 (stereo partly drawn) [BS-FC-421]
anti-CNE activity increase over fangchinoline ([13]; relative to fangchinoline, Table 2): ~3 fold
antitumor activity compared with that of fangchinoline (tumor): significantly superior

Source: patent US9328122B2, “7-substituted Hanfangichin B derivative, and preparation method and use thereof” (HANGZHOU BENSHENG PHARMACEUTICAL CO., LTD., priority 2012, dated 2016)
